The text below walks through data of US8287887B2, “Antigen-and-drug vehicle comprising synthetic peptide, and mucosal vaccine using the same” (priority 2008, dated 2012).

For assay [1], the system named is influenza virus A strain New Calcdonia (H1N1). Also on record: species or system Clawn minipigs. As to conditions: minipig, in vivo.
Assay [2] has as its system influenza A virus strain Aichi/68/2/H3N2. As to the kind of experiment: Nasal vaccination of mice; anti-influenza IgA and IgG in nasal cavity lavage fluids and blood serum by ELISA. It counts as in vivo, BALB/c mice. To be noted: compared with HA vaccine alone or with other AD vehicles. (In general: An ELISA detects its analyte on a solid surface through an enzyme-linked reagent.)

“KKKKKKLLLLLLLLLLLLLLLL [K6L16, six K residues on the N-terminal side and 16 L residues on the C-terminal side]”: in assay [1], the “Effectiveness of AD vehicle in inducing antibody titers, in words” value is “effective”. In the case of PVHLKRLLLLLLLLLLL [SP-CL11], in assay [1], the “Effectiveness of AD vehicle in inducing antibody titers, in words” value is “effective”. As for “PVHLRKLLLLLLLLLLLLLLLL (PVHLKRLLLLLLLLLLLLLLLL) [RK-SP-CL, comparison peptide; KR of the 5th-6th positions of SP-CL11 reversed to RK, more L residues]”, in assay [2], the “Antibody-production-enhancing effect (IgA and/or IgG), in words” value is “not much involved in the antibody production”.
